Experimental data: patent US9522194B2, “Methods of using monomethylvaline compositions having phenylalanine carboxy modifications at the C-terminus” (priority 2005, dated 2016)
Non-standard residues stand in square brackets, D forms with d. Residues, ends and D or L forms follow the SMILES beside them. ξ: configuration not given here. *: point of attachment. Dolaproine = CO[C@@H]([C@@H]1CCCN1)[C@@H](C)C(=O)O; Dil = CC[C@H](C)[C@H](NC)[C@@H](CC(=O)O)OC; X1 = c1ccc(C[C@H](N*)c2nn[nH]n2)cc1; X2 = C[C@@H](N*)[C@@H](O)c1ccccc1; NMeV = CN[C@H](C(=O)O)C(C)C; ξNMeV = CNC(C(=O)O)C(C)C

Assays:
[1] = tested on: renal cell carcinoma cell line 786-O; assay: In vitro cytotoxicity of free drugs (resazurin, 96 h); type: cell-based; details: free drug, read-out: IC50s (nM) 786-O
[2] = tested on: renal cell carcinoma cell line Caki-1; assay: as above; type: cell-based; details: free drug, read-out: IC50s (nM) Caki-1
[3] = tested on: colon carcinoma cell line HCT-116; assay: as above; type: cell-based; details: free drug, read-out: IC50s (nM) HCT-116
[4] = tested on: anaplastic large cell lymphoma cell line Karpas 299; assay: as above; type: cell-based, human; details: free drug, read-out: IC50s (nM) Karpas 299
[5] = tested on: Hodgkin's disease cell line L428; assay: as above; type: cell-based; details: free drug, read-out: IC50s (nM) L428
[6] = tested on: Hodgkin's disease cell line L540cy; assay: as above; type: cell-based; details: free drug, read-out: IC50s (nM) L540cy
[7] = tested on: CD70+ 786-O renal cell carcinoma cell line; assay: In vitro efficacy of antibody drug conjugates, 96 hours incubation; type: cell-based
[8] = tested on: CD70+ Caki-1 renal cell carcinoma cell line; assay: as above; type: cell-based
[9] = tested on: L428 cell line (CD70+, CD30+); assay: as above; type: cell-based
[10] = tested on: CD30+ Karpas 299 cell line; assay: as above; type: cell-based, human; details: cAC10 (chimeric anti-CD30) conjugate of the named linker-drug, 4 drugs per antibody
Protocol: (§1) To evaluate the cytotoxicity of Exemplary Conjugates, cells are seeded at approximately 5-10,000 per well in 150 μl of culture medium then treated with graded doses of Exemplary Conjugates in quadruplicates at the initiation of assay. Cytotoxicity assays are carried out for 96 hours after addition of test compounds. Fifty μl of the resazurin dye is added to each well during the last 4 to 6 hours of the incubation to assess viable cells at the end of culture. Dye reduction is determined by fluorescence spectrometry using the excitation and emission wavelengths of 535 nm and 590 nm, respectively. For analysis, the extent of resazurin reduction by the treated cells is compared to that of the untreated control cells.
(§2) IC50 values are defined as the concentration where growth is reduced 50% compared with untreated control cultures. Each concentration is tested in quadruplicate. The conjugates contain 4 drugs per antibody.

CD30+ L540cy cell line = assay: as above; type: cell-based; details: cAC10 (chimeric anti-CD30) conjugate of the named linker-drug, 4 drugs per antibody
Protocol: as §1, §2

[11] = tested on: breast carcinoma cell line H3396; assay: In vitro activity of free drugs; type: cell-based; details: free drug
Protocol: The cytotoxic activity of MMAZ and other compounds is evaluated on the Lewis Y positive cell lines OVCAR-3, H3396 breast carcinoma, L2987 lung carcinoma and LS174t colon carcinoma Lewis Y positive cell lines can be assayed for cytotoxicity. To evaluate the cytotoxicity of compounds, cells can be seeded at approximately 5-10,000 per well in 150 μl of culture medium then treated with graded doses of compounds in quadruplicates at the initiation of assay. Cytotoxicity assays are usually carried out for 96 hours after addition of test compounds. Fifty μl of resazurin dye may be added to each well during the last 4 to 6 hours of the incubation to assess viable cells at the end of culture. Dye reduction can be determined by fluorescence spectrometry using the excitation and emission wavelengths of 535 nm and 590 nm, respectively. For analysis, the extent of resazurin reduction by the treated cells can be compared to that of the untreated control cells.

## CO[C@@]12[C@H](COC(N)=O)C3=C(C(=O)C(C)=C(N)C3=O)N1C[C@@H]1N[C@@H]12 [Mitomycin C]
[1]
  IC50: 32.3 nM
[2]
  IC50: 14.5 nM
[3]
  IC50: 166 nM
[4]
  IC50: 105 nM
[5]
  IC50: 187 nM
[6]
  IC50: 134 nM

## MaleimidocaproylValCitp-aminobenzoyl-NMeValValDil-DapphosphonoPhe [mc-vc-PAB-MMApF]
[7]
  IC50 of c1F6 ADCs (ng/mL) 786-O: >1000 ng/mL
[8]
  IC50 of c1F6 ADCs (ng/mL) Caki-1: 29.5 ng/mL

## mc-MMAF
[7]
  IC50 of c1F6 ADCs (ng/mL) 786-O: 135 ng/mL
[8]
  IC50 of c1F6 ADCs (ng/mL) Caki-1: 47.3 ng/mL
[9]
  IC50 of cAC10 ADCs (ng/mL) L428: 1.3 ng/mL
[10]
  IC50 of cAC10 ADCs (ng/mL) Karpas 299: 7.6 ng/mL
CD30+ L540cy cell line
  IC50 of cAC10 ADCs (ng/mL) L540cy: 3.4 ng/mL

## CC[C@H](C)[C@@H]([C@@H](CC(=O)N1CCC[C@H]1[C@H](OC)[C@@H](C)C(=O)N[C@@H](Cc1ccccc1)c1nn[nH]n1)OC)N(C)C(=O)[C@@H](NC(=O)C(NC)C(C)C)C(C)C (some centres unmarked) [Drug 1003] (H-[ξNMeV]V[Dil][Dolaproine]-X1)
[11]; Homo sapiens
  IC50: 6 nM

## CC[C@H](C)[C@@H]([C@@H](CC(=O)N1CCC[C@H]1[C@H](OC)[C@@H](C)C(=O)N[C@H](C)[C@@H](O)c1ccccc1)OC)N(C)C(=O)[C@@H](NC(=O)[C@@H](NC)C(C)C)C(C)C [MMAE] (H-[NMeV]V[Dil][Dolaproine]-X2)
[11]
  IC50: 0.7 nM

## CC[C@H](C)[C@@H]([C@@H](CC(=O)N1CCC[C@H]1[C@H](OC)[C@@H](C)C(=O)N[C@@H](Cc1ccccc1)C(=O)O)OC)N(C)C(=O)[C@@H](NC(=O)[C@@H](NC)C(C)C)C(C)C [MMAF, N-methylvaline-valine-dolaisoleuine-dolaproine-phenylalanine] (H-[NMeV]V[Dil][Dolaproine]F-OH)
[1]
  IC50: 380 nM
[2]
  IC50: 234 nM
[3]
  IC50: 310 nM
[4]
  IC50: 240 nM
[5]
  IC50: 58 nM
[6]
  IC50: 130 nM
[11]
  IC50: 15 nM

## MaleimidocaproylNMeValValDilDapphosphonoPhe [mc-MMApF-B]
[7]
  IC50 of c1F6 ADCs (ng/mL) 786-O: >1000 ng/mL
[8]
  IC50 of c1F6 ADCs (ng/mL) Caki-1: >1000 ng/mL
[9]
  IC50 of cAC10 ADCs (ng/mL) L428: >5000 ng/mL
[10]
  IC50 of cAC10 ADCs (ng/mL) Karpas 299: >5000 ng/mL
CD30+ L540cy cell line
  IC50 of cAC10 ADCs (ng/mL) L540cy: >5000 ng/mL

## MaleimidocaproylNMeValValDilDapphosphonoPhe [mc-MMApF-A]
[7]
  IC50 of c1F6 ADCs (ng/mL) 786-O: 3.5 ng/mL
[8]
  IC50 of c1F6 ADCs (ng/mL) Caki-1: 8.9 ng/mL
[9]
  IC50 of cAC10 ADCs (ng/mL) L428: 0.423 ng/mL
[10]
  IC50 of cAC10 ADCs (ng/mL) Karpas 299: 10.9 ng/mL
CD30+ L540cy cell line
  IC50 of cAC10 ADCs (ng/mL) L540cy: 2.7 ng/mL
